# Data: patent publication US20240148745A1, “COMPOUNDS FOR USE IN PROGRESSIVE MULTIPLE SCLEROSIS” (FONDAZIONE CENTRO SAN RAFFAELE, priority 2021, published 2024)
# Key:
# [1] = test system: primary human A2B5+ pre-oligodendrocytes; experiment: Ensheathment by primary human A2B5+ oligodendrocyte lineage cells; type: cell-based; details: for percentage of ensheathed O4+ cells: human adult A2B5+ cells, 14 days
# Procedure: FIG. 49. […] The experiments were conducted using primary human oligodendrocyte lineage cells obtained from surgically derived tissue specimens. Specimens were derived either from adults or pediatric age groups. […] Percentages of ensheathed O4+ cells were calculated by the total ensheathed O4+ cells out of total O4+ cells. HA-human adult, HP-human pediatric. *p<0.05.
# [2] = test system: iPSC-derived neurons (DIV45); details: human
# Procedure: This protocol was modified from Yuchen Qi et al.^32 First, neural progenitors (NPCs) were generated from hiPSCs by dual-SMAD inhibition. Shortly, at day 0 iPSC colonies (confluent at 70-80%) were washed with PBS Dulbecco's w/o Calcium w/o Magnesium (Euroclone) and hiPSCs' maintenance medium (mTeSR™, StemCell Technologies) was replaced with neural induction medium composed by DMEM/F12 plus N2 medium (1×), B27 without RA supplement (0.5×) (Life Technology), added with SB431542 (10 μM) and LDN (500 nM). This medium was kept until day 4 (“induction”). At day 4, cells were splitted (1:3) with the same induction medium using Accutase®/Accumax™ (StemCell Technologies) dissociated solution. Entire medium was replaced daily up to days 14-16 until rosette formation was observed (“patterning”). At days 14-16, cells were detached by Accutase®/Accumax™ and re-plated on polyornitine/laminin/fibronectin coated MW96 or MW24 plates for terminal differentiation in Neurobasal medium supplemented with B27 (0.5×), BDNF (20 ng/ml), dbcAMP (500 μM), ascorbic acid (200 μM), PD0325901 (1 μM), SU5402 (5 μM), CHIR (3 μM), human recombinant insulin (5 μg/ml), supplemented with RI (Rock inhibitor) (1:3000) to reduce dissociation induced apoptosis. The half of differentiation medium was changed every 3-4 days, supplemented with 1 μg/ml laminin and DAPT (1-2 μM) until terminal maturation of neuronal population (MAP2+ cells). Cultures were characterized by immunocytochemistry and qRT-PCR and neuroprotective experiments were performed on days 30-40 of differentiation.
# Evaluation of cytotoxicity of 160 selected compounds on iPSC-derived neurons (DIV45).
# [3] = test system: human embryonic and fetal neural precursors (hufNPCs); experiment: hufNPC differentiation towards TUJ1+ neurons; type: cell-based; details: 1 μM, 7 days
# Procedure: First, fresh human fetal brain tissues were mechanically dissociated, followed by enzymatic dissociation with Trypsin (LONZA (BE17-161E) 1:5) in growth medium for 5-10 min at 37° C., 5% O2 e 5% CO2, then washed with 10% Australian FBS in fresh medium and centrifuged 15 min at 200 g. Cells were plated in T25 flask in Neural stem cell growth medium (NeuroCult-XF Basal Medium (cat. #05760)+ NeuroCult-XF Proliferation supplement (cat. #05763) (for Human Neural Stem Cells) […] TECHNOLOGIES+human recombinant carrier-free EGF (cat. #1325 9510 00) and bFGF (cat. #1370 9505 00) (Provitro) at final concentration of 20 ng/ml) at 37° C., 5% O2 e 5% CO2. After 15-25 days, enzymatic (Accumax®, StarFish cat. #GMP-102470) dissociation of neurospheres or subconfluent adherent cells was performed and cells were re-plated at density (25000 cells/cm2) in NGM. […] Pro-differentiating properties of 160 compounds were evaluated by co-incubating freshly seeded in 96 well plate hufNPCs with 1 μM compounds for 7 days (each compound was tested in triplicate). […] After one week, cells were fixed and analyzed via immunocytochemistry. […] 15 images per well were acquired and analyzed by CellProfiler. Number of TUJ1+/DAPI cells was counted and compared to DMSO.
# 160 selected non-toxic compounds pro-differentiating properties were evaluated on human embryonic and fetal neural precursors (hufNPCs). […]
# S1R (Sigma 1 Receptor) = target: T1, S1R (Sigma 1 Receptor) (Rattus norvegicus, UniProt Q9R0C9); experiment: CETSA target engagement in CG-4 cell lysates; type: binding; details: 100 μM, 15 minutes, 52-77° C.
# T1 construct: endogenous in cells; host or cells: CG-4 oligodendrocyte cell line (rat), lysate
# T1 sequence (Q9R0C9 whole entry): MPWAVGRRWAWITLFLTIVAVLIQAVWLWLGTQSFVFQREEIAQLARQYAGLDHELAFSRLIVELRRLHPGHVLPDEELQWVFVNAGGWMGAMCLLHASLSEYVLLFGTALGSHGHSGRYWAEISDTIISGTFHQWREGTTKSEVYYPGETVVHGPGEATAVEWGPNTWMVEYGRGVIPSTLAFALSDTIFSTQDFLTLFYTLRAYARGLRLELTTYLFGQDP
# Procedure: FIG. 32. […] Samples were heated at increasing temperatures (52-77° C.) and the soluble fractions were subjected to western blot. […] The immunoblot is representative of 4 biological replicates. Band quantification was performed by ImageJ software and the signal intensity of the thermostable protein was normalized to the respective intensity at 52° C. Protein amount at the other temperatures is represented as % of protein at 52° C. Data are means±the standard error of biological quadruplicates measurements and their statistical significance was evaluated by the Student's t-test (*** p<0.001; **p<0.01; *p<0.05).
# [4] = test system: LPC lesions of MBP-deficient shiverer spinal cords transplanted with human iPSC-derived oligodendrocytes; experiment: Remyelination in LPC lesions of shiverer spinal cords grafted with hiOLs; type: in vivo, mouse; details: gavage during 8 or 10 wkpg
# Text: FIG. 48. In vivo results of Bavisant treatment on remyelination in LPC lesions of MBP-deficient shiverer spinal cords transplanted with human iPSC-derived oligodendrocytes. […] Exogenous myelin is detected by MBP and endogenous myelin by MOG.
SMILES,toxicity on dissociated cultures [1],percentage of ensheathed O4+ cells [1],viability compared to DMSO [2],neuronal differentiation (TUJ1+/DAPI cells vs DMSO) [3],"thermostability of S1R (CETSA, western blot) (S1R (Sigma 1 Receptor))",remyelination potential of grafted hiOLs (MBP) [4]
CC(=O)N1CCN([C@H]2CCN(C(=O)N(C)[C@H](C)c3cc(C(F)(F)F)cc(C(F)(F)F)c3)[C@@H](c3ccc(F)cc3C)C2)CC1 [Casopitant],No evidence of toxicity,promote ensheathment of adult brain derived A2B5+ cells,65-80%,,,
CC1(C)CCC(C)(C)c2cc(NC(=O)c3ccc(C(=O)O)cc3)ccc21 [Tamibarotene],,,,significantly promoted neuronal differentiation compared to DMSO and heparin,,
O=C(c1ccc(CN2CCOCC2)cc1)N1CCN(C2CC2)CC1 [Bavisant],No evidence of toxicity,promote ensheathment of adult brain derived A2B5+ cells,,,thermostability of S1R in the presence of Bavisant,has the tendency to promote the remyelination potential of hiOLs
O=C(NOC[C@H](O)CO)c1ccc(F)c(F)c1Nc1ccc(I)cc1F [PD-0325901],,,65-80%,,,
